Measured values from PubChem BioAssay AID1259407 (Chemical Carcinogenesis Research Information System (CCRIS), 2018).
Calls of active or inactive are those of the source. No rule for the calls is given here.

System: CCRIS mutagenicity, Ames/micronucleus/aberration tests
Test: CCRIS mutagenicity studies
[1] = Test System: AMES SALMONELLA TYPHIMURIUM, Strain/Indicator: TA100, Metabolic Activation: NONE, Method: STANDARD PLATE
[2] = Test System: AMES SALMONELLA TYPHIMURIUM, Strain/Indicator: TA100, Metabolic Activation: RAT, LIVER, S-9, AROCLOR 1254, Method: STANDARD PLATE
[3] = Test System: AMES SALMONELLA TYPHIMURIUM, Strain/Indicator: TA1538, Metabolic Activation: RAT, LIVER, S-9, AROCLOR 1254, Method: STANDARD PLATE
[4] = Test System: AMES SALMONELLA TYPHIMURIUM, Strain/Indicator: TA98, Metabolic Activation: NONE, Method: STANDARD PLATE

Compound: Cc1cccc(N=Nc2ccc(N(C)C)cc2)c1
- mutagenic call (Test System: AMES SALMONELLA TYPHIMURIUM, Strain/Indicator: TA98, Metabolic Activation: RAT, LIVER, S-9, KC500 OR PHENOBARBITAL, Method: LIQUID SUSPENSION): active; positive
- mutagenic call (Test System: AMES SALMONELLA TYPHIMURIUM, Strain/Indicator: TA98, Metabolic Activation: RAT, LIVER, S-9, N-BENZYLIMIDAZOLE, Method: PREINCUBATION): active; positive
- mutagenic call (Test System: AMES SALMONELLA TYPHIMURIUM, Strain/Indicator: TA100, Metabolic Activation: RAT, LIVER, S-9, KC500 OR PHENOBARBITAL, Method: LIQUID SUSPENSION): active; positive
- mutagenic call (Test System: AMES SALMONELLA TYPHIMURIUM, Strain/Indicator: TA1538, Metabolic Activation: RAT, LIVER, S-9, PHENOBARBITAL, Method: STANDARD PLATE): active; positive
- mutagenic call (Test System: UDS RODENT HEPATOCYTES, Strain/Indicator: THY INCORP (NON-S-PHASE), Method: AUTORADIOGRAPHY): active; positive
- mutagenic call (Test System: UDS RODENT HEPATOCYTES, Strain/Indicator: THY INCORP (NON-S-PHASE), Method: LIQUID SCINTILLATION COUNTING): active; positive

Compound: Cc1cc(O)c2c(c1O)C(=O)c1cccc(O)c1C2=O
- mutagenic call (Test System: UDS RODENT HEPATOCYTES, Strain/Indicator: THY INCORP, Metabolic Activation: NONE, Method: AUTORADIOGRAPHY): inactive; negative

Compound: C[N+](C)(C)CC(=O)O
- mutagenic call [1]: inactive; negative
- mutagenic call [2]: inactive; negative

Compound: Nc1ccc(Nc2c3ccccc3nc3ccccc23)cc1
- mutagenic call (Test System: AMES SALMONELLA TYPHIMURIUM, Strain/Indicator: TA1537, Metabolic Activation: NONE, Method: STANDARD PLATE): active; positive

Compound: CCN(CC)c1ccc2cc(-c3nc4ccccc4n3C)c(=O)oc2c1
- mutagenic call (Test System: AMES SALMONELLA TYPHIMURIUM, Strain/Indicator: TA1538, Metabolic Activation: NONE, Method: STANDARD PLATE): inactive; negative
- mutagenic call [3]: inactive; negative

Compound: [N-]=[N+]=NC[C@H]1O[C@H](O)[C@@H](O)[C@H](O)[C@@H]1O
- mutagenic call [4]: inactive; negative
- mutagenic call [1]: active; positive

Compound: O=C(c1ccccc1)C1OC1c1ccc([N+](=O)[O-])cc1 (configuration not stated)
- mutagenic call [4]: inactive; negative
- mutagenic call (Test System: AMES SALMONELLA TYPHIMURIUM, Strain/Indicator: TA98, Metabolic Activation: RAT, LIVER, S-9, AROCLOR 1254, Method: STANDARD PLATE): inactive; negative
- mutagenic call [1]: inactive; negative
- mutagenic call [2]: inactive; negative

Compound: c1ccc2c(c1)-c1ccc3ccc4cccc5cc-2c1c3c45
- mutagenic call [1]: inactive; negative
- mutagenic call (Test System: AMES SALMONELLA TYPHIMURIUM, Strain/Indicator: TA100, Metabolic Activation: RAT, LIVER, S-9, AROCLOR 1254, Method: PREINCUBATION): active; positive
- mutagenic call [2]: active; positive
- mutagenic call (Test System: AMES SALMONELLA TYPHIMURIUM, Strain/Indicator: TA1537, Metabolic Activation: RAT, LIVER, S-9, AROCLOR 1254, Method: STANDARD PLATE): active; positive
- mutagenic call [3]: active; positive

Compound: O=[N+]([O-])c1ccc2c(c1)oc1ccc([N+](=O)[O-])cc12
- mutagenic call (Test System: AMES SALMONELLA TYPHIMURIUM, Strain/Indicator: TA98(1,8-DNP6), Metabolic Activation: NONE, Method: PREINCUBATION): active; positive
- mutagenic call (Test System: AMES SALMONELLA TYPHIMURIUM, Strain/Indicator: TA98(1,8-DNP6), Metabolic Activation: NONE, Method: SUSPENSION): active; positive
- mutagenic call (Test System: AMES SALMONELLA TYPHIMURIUM, Strain/Indicator: TA98(1,8-DNP6), Metabolic Activation: RAT, LIVER, S-9, PCB (5%), Method: PREINCUBATION): active; positive
- mutagenic call (Test System: AMES SALMONELLA TYPHIMURIUM, Strain/Indicator: TA98(NR), Metabolic Activation: NONE, Method: PREINCUBATION): inactive; negative
- mutagenic call (Test System: AMES SALMONELLA TYPHIMURIUM, Strain/Indicator: TA98(NR), Metabolic Activation: NONE, Method: SUSPENSION): inactive; negative
- mutagenic call (Test System: AMES SALMONELLA TYPHIMURIUM, Strain/Indicator: TA98(NR), Metabolic Activation: RAT, LIVER, S-9 (10%), Method: PREINCUBATION): active; positive
- mutagenic call (Test System: AMES SALMONELLA TYPHIMURIUM, Strain/Indicator: TA98(NR), Metabolic Activation: RAT, LIVER, S-9, 3-METHYLCHOLANTHRENE (10%), Method: PREINCUBATION): active; positive
- mutagenic call (Test System: AMES SALMONELLA TYPHIMURIUM, Strain/Indicator: TA98(NR), Metabolic Activation: RAT, LIVER, S-9, BETA-NAPHTHOFLAVONE (10%), Method: PREINCUBATION): active; positive
- mutagenic call (Test System: AMES SALMONELLA TYPHIMURIUM, Strain/Indicator: TA98(NR), Metabolic Activation: RAT, LIVER, S-9, PCB (5 OR 10%), Method: PREINCUBATION): active; positive
- mutagenic call (Test System: AMES SALMONELLA TYPHIMURIUM, Strain/Indicator: TA98(NR), Metabolic Activation: RAT, LIVER, S-9, PHENOBARBITAL (10%), Method: PREINCUBATION): active; positive
- mutagenic call (Test System: AMES SALMONELLA TYPHIMURIUM, Strain/Indicator: TA98, Metabolic Activation: NONE, Method: PREINCUBATION): active; positive
- mutagenic call (Test System: AMES SALMONELLA TYPHIMURIUM, Strain/Indicator: TA98, Metabolic Activation: NONE, Method: SUSPENSION): active; positive
- mutagenic call (Test System: AMES SALMONELLA TYPHIMURIUM, Strain/Indicator: TA98, Metabolic Activation: RAT, LIVER, S-9, PCB (5%), Method: PREINCUBATION): active; positive
- mutagenic call (Test System: AMES SALMONELLA TYPHIMURIUM, Strain/Indicator: TA98, Metabolic Activation: RAT, LIVER, S-9, PCB, Method: SUSPENSION): active; positive
- mutagenic call (Test System: AMES SALMONELLA TYPHIMURIUM, Strain/Indicator: TA100, Metabolic Activation: NONE, Method: PREINCUBATION): inactive; negative
- mutagenic call (Test System: AMES SALMONELLA TYPHIMURIUM, Strain/Indicator: TA100, Metabolic Activation: NONE, Method: SUSPENSION): inactive; negative
- mutagenic call (Test System: AMES SALMONELLA TYPHIMURIUM, Strain/Indicator: TA100, Metabolic Activation: RAT, LIVER, S-9, PCB (5%), Method: PREINCUBATION): inactive; negative
- mutagenic call (Test System: AMES SALMONELLA TYPHIMURIUM, Strain/Indicator: TA100, Metabolic Activation: RAT, LIVER, S-9, PCB, Method: SUSPENSION): active; positive

Compound: O=C(CCCl)N=c1sn(C(=O)CCCl)c2ccccc12
- mutagenic call (Test System: AMES SALMONELLA TYPHIMURIUM, Strain/Indicator: TA100, Metabolic Activation: S-9, Method: STANDARD PLATE): inactive; negative
